Patent publication US11084800B2 (Achillion Pharmaceuticals, Inc., priority 2017, dated 2021)

Molecular target: Human Factor D (Homo sapiens (Human), UniProt P00746)
Test: Human Factor D Assay
Type: biochemical
Conditions: Table 6; Factor D 80 nM, substrate Z-L-Lys-SBz; read-out: IC50
Protocol: The assay of Example 10 was used to determine the IC50's of the compounds. Other standard factor D inhibition assays are also available.
Human Factor D (purified from human serum, Complement Technology, Inc.) at 80 nM final concentration is incubated with test compound at various concentrations for 5 min at room temperature in 50 mM Tris, 1M NaCl, pH 7.5. A synthetic substrate Z-L-Lys-SBz and DTNB (Ellman's reagent) are added to final concentrations of 100 μM each. Absorbance at 405 nm (A405) is recorded at 30 second intervals for 30 min using a microplate spectrophotometer. IC50 values are calculated by nonlinear regression of complement Factor D reaction rates as a function of test compound concentration.

Sequence of Human Factor D (P00746 26-253): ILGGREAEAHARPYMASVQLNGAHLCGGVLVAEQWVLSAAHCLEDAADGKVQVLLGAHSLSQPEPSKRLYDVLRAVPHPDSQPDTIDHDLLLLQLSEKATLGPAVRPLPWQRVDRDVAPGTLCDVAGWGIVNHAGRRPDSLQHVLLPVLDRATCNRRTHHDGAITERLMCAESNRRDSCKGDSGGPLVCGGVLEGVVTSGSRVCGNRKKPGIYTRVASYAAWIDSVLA

| SMILES | IC50 [µM] |
| --- | --- |
| CC(=O)c1nn(CC(=O)N2C3CC3(CN3CC4CCCC4C3)C[C@H]2C(=O)Nc2nc(Br)ccc2C)c2ccc(-c3cnc(C)nc3)cc12 (stereo partly drawn) [Compound 11, (3S)-2-(2-(3-Acetyl-5-(2-methylpyrimidin-5-yl)-1H-indazol-1-yl)acetyl)-N-(6-bromo-3-methylpyridin-2-yl)-5-((hexahydrocyclopenta[c]pyrrol-2(1H)-yl)methyl)-2-azabicyclo[3.1.0]hexane-3-carboxamide] | < 1 |
| CC(=O)c1nn(CC(=O)N2C3CC3(CN3CC4CC(C4)C3)C[C@H]2C(=O)Nc2nc(Br)ccc2C)c2ccc(-c3cnc(C)nc3)cc12 (some centres unmarked) [Compound 12] | < 1 |
| CC(=O)c1nn(CC(=O)N2[C@H](C(=O)Nc3nc(Br)ccc3C(C)C)C[C@@]3(C)C[C@@H]23)c2ccc(-c3cnc(C)nc3)cc12 [Compound 14, (1R,3S,5R)-2-(2-(3-Acetyl-5-(2-methylpyrimidin-5-yl)-1H-indazol-1-yl)acetyl)-N-(6-bromo-3-isopropylpyridin-2-yl)-5-methyl-2-azabicyclo[3.1.0]hexane-3-carboxamide] | < 1 |
| CC(=O)c1nn(CC(=O)N2[C@H](C(=O)Nc3nc(Br)ccc3C)C[C@@]3(C)C[C@@H]23)c2cnc(-c3cnc(C)nc3)cc12 [Compound 15, (1R,3S,5R)-2-(2-(3-Acetyl-5-(2-methylpyrimidin-5-yl)-1H-pyrazolo[3,4-c]pyridin-1-yl)acetyl)-N-(6-bromo-3-methylpyridin-2-yl)-5-methyl-2-azabicyclo[3.1.0]hexane-3-carboxamide] | < 1 |
| CC(=O)c1nn(CC(=O)N2C[C@H](F)C[C@H]2C(=O)NCC23C4C5C6C4C2C6C53)c2ccc(-c3cnc(C)nc3)cc12 (stereo partly drawn) [Compound 16, (2S,4R)-1-(2-(3-Acetyl-5-(2-methylpyrimidin-5-yl)-1H-indazol-1-yl)acetyl)-N-(cuban-1-ylmethyl)-4-fluoropyrrolidine-2-carboxamide] | 1 to 10 |
| CC(=O)c1nn(CC(=O)N2[C@@H]3C[C@@H]3C[C@H]2C(=O)NC/C(F)=C(/C)c2ccccc2)c2c(C)cc(-c3cnc(C)nc3)cc12 [Compound 17, (1R,3S,5R)-2-(2-(3-Acetyl-7-methyl-5-(2-methylpyrimidin-5-yl)-1H-indazol-1-yl)acetyl)-N-((E)-2-fluoro-3-phenylbut-2-en-1-yl)-2-azabicyclo[3.1.0]hexane-3-carboxamide] | < 1 |
| CC(=O)c1nn(CC(=O)N2C[C@H](F)C[C@H]2C(=O)Nc2cccc(Br)n2)c2c(CN(C)C)cc(-c3cnc(C)nc3)cc12 [Compound 19, (2S,4R)-1-(2-(3-Acetyl-7-((dimethylamino)methyl)-5-(2-methylpyrimidin-5-yl)-1H-indazol-1-yl)acetyl)-N-(6-bromopyridin-2-yl)-4-fluoropyrrolidine-2-carboxamide] | < 1 |
| CC(=O)c1nn(CC(=O)N2C[C@H](F)C[C@H]2C(=O)Nc2cccc(Br)n2)c2c(CF)cc(-c3cnc(C)nc3)cc12 [Compound 20, (2S,4R)-1-(2-(3-Acetyl-7-(fluoromethyl)-5-(2-methylpyrimidin-5-yl)-1H-indazol-1-yl)acetyl)-N-(6-bromopyridin-2-yl)-4-fluoropyrrolidine-2-carboxamide] | < 1 |
| CC(=O)c1nn(CC(=O)N2C[C@H](F)C[C@H]2C(=O)Nc2cccc(Br)n2)c2c(Cc3ncc(C)cn3)cc(-c3cnc(C)nc3)cc12 [Compound 21, (2S,4R)-1-(2-(3-acetyl-7-((5-methylpyrimidin-2-yl)methyl)-5-(2-methylpyrimidin-5-yl)-1H-indazol-1-yl)acetyl)-N-(6-bromopyridin-2-yl)-4-fluoropyrrolidine-2-carboxamide] | < 1 |
| CC(=O)c1nn(CC(=O)N2C3CC3(CN3CCNCC3)C[C@H]2C(=O)Nc2nc(Br)ccc2C)c2ccc(-c3cnc(C)nc3)cc12 (stereo partly drawn) [Compound 22, (3S)-2-(2-(3-Acetyl-5-(2-methylpyrimidin-5-yl)-1H-indazol-1-yl)acetyl)-N-(6-bromo-3-methylpyridin-2-yl)-5-(piperazin-1-ylmethyl)-2-azabicyclo[3.1.0]hexane-3-carboxamide] | < 1 |
| CC(=O)c1nn(CC(=O)N2C[C@H](F)C[C@H]2C(=O)Nc2nc(Br)ccc2CC#N)c2ccc(-c3cnc(C)nc3)cc12 [Compound 23, (2S,4R)-1-(2-(3-Acetyl-5-(2-methylpyrimidin-5-yl)-1H-indazol-1-yl)acetyl)-N-(6-bromo-3-(cyanomethyl)pyridin-2-yl)-4-fluoropyrrolidine-2-carboxamide] | < 1 |
| CC(=O)c1nn(CC(=O)N2C3CC3(CN3CCN(C)CC3)C[C@H]2C(=O)Nc2nc(Br)ccc2C)c2ccc(-c3cnc(C)nc3)cc12 (stereo partly drawn) [Compound 24, (3S)-2-(2-(3-Acetyl-5-(2-methylpyrimidin-5-yl)-1H-indazol-1-yl)acetyl)-N-(6-bromo-3-methylpyridin-2-yl)-5-((4-methylpiperazin-1-yl)methyl)-2-azabicyclo[3.1.0]hexane-3-carboxamide] | < 1 |
| COC(=O)c1cc(-c2cnc(C)nc2)cc2c(C(C)=O)nn(CC(=O)N3C[C@H](F)C[C@H]3C(=O)Nc3cccc(Br)n3)c12 [Compound 25, Methyl 3-acetyl-1-(2-((2S,4R)-2-((6-bromopyridin-2-yl)carbamoyl)-4-fluoropyrrolidin-1-yl)-2-oxoethyl)-5-(2-methylpyrimidin-5-yl)-1H-indazole-7-carboxylate] | < 1 |
| CC(=O)c1nn(CC(=O)N2C3CC3(CN)C[C@H]2C(=O)Nc2nc(Br)ccc2C)c2ccc(-c3cnc(C)nc3)cc12 (stereo partly drawn) [Compound 26, (3S)-2-(2-(3-Acetyl-5-(2-methylpyrimidin-5-yl)-1H-indazol-1-yl)acetyl)-5-(aminomethyl)-N-(6-bromo-3-methylpyridin-2-yl)-2-azabicyclo[3.1.0]hexane-3-carboxamide] | 1 to 10 |
| CC(=O)c1nn(CC(=O)N2[C@H](C(=O)Nc3nc(Br)c(F)cc3C)C[C@@]3(C)C[C@@H]23)c2c(C)cc(-c3cnc(C)nc3)cc12 [Compound 27, (1R,3S,5R)-2-(2-(3-acetyl-7-methyl-5-(2-methylpyrimidin-5-yl)-1H-indazol-1-yl)acetyl)-N-(6-bromo-5-fluoro-3-methylpyridin-2-yl)-5-methyl-2-azabicyclo[3.1.0]hexane-3-carboxamide] | < 1 |
| C=CCOCc1ccc(Br)nc1NC(=O)[C@@H]1C[C@]2(COCC=C)C[C@@H]2N1C(=O)Cn1nc(C(C)=O)c2cc(-c3cnc(C)nc3)ccc21 [Compound 29, (1S,3S,5R)-2-(2-(3-Acetyl-5-(2-methylpyrimidin-5-yl)-1H-indazol-1-yl)acetyl)-5-((allyloxy)methyl)-N-(3-((allyloxy)methyl)-6-bromopyridin-2-yl)-2-azabicyclo[3.1.0]hexane-3-carboxamide] | < 1 |
| CC(=O)c1nn(CC(=O)N2[C@H](C(=O)Nc3nc(Br)ccc3C)C[C@@]3(C)C[C@@H]23)c2c(CF)cc(-c3cnc(C)nc3)cc12 [Compound 31, (1R,3S,5R)-2-(2-(3-Acetyl-7-(fluoromethyl)-5-(2-methylpyrimidin-5-yl)-1H-indazol-1-yl)acetyl)-N-(6-bromo-3-methylpyridin-2-yl)-5-methyl-2-azabicyclo[3.1.0]hexane-3-carboxamide] | < 1 |
| COCc1cc(-c2cnc(C)nc2)cc2c(C(C)=O)nn(CC(=O)N3C4CC4(COC)C[C@H]3C(=O)Nc3cccc(Br)n3)c12 (stereo partly drawn) [Compound 32, (3S)-2-(2-(3-Acetyl-7-(methoxymethyl)-5-(2-methylpyrimidin-5-yl)-1H-indazol-1-yl)acetyl)-N-(6-bromopyridin-2-yl)-5-(methoxymethyl)-2-azabicyclo[3.1.0]hexane-3-carboxamide] | < 1 |
| CC(=O)c1nn(CC(=O)N2[C@H](C(=O)Nc3cccc(OC(F)(F)F)c3F)C[C@@]3(C)C[C@@H]23)c2c(C)cc(-c3cnc(C)nc3)cc12 [Compound 33, (1R,3S,5R)-2-(2-(3-Acetyl-7-methyl-5-(2-methylpyrimidin-5-yl)-1H-indazol-1-yl)acetyl)-N-(2-fluoro-3-(trifluoromethoxy)phenyl)-5-methyl-2-azabicyclo[3.1.0]hexane-3-carboxamide] | < 1 |
| CC(=O)c1nn(CC(=O)N2[C@H](C(=O)N[C@@H](C)C(F)=C(C)C)C[C@@]3(C)C[C@@H]23)c2c(C)cc(-c3cnc(C)nc3)cc12 [Compound 34, (1R,3S,5R)-2-(2-(3-Acetyl-7-methyl-5-(2-methylpyrimidin-5-yl)-1H-indazol-1-yl)acetyl)-N—((S)-3-fluoro-4-methylpent-3-en-2-yl)-5-methyl-2-azabicyclo[3.1.0]hexane-3-carboxamide] | < 1 |
| CC(=O)c1nn(CC(=O)N2[C@H](C(=O)Nc3ccn(CC(F)(F)F)n3)C[C@@]3(C)C[C@@H]23)c2c(C)cc(-c3cnc(C)nc3)cc12 [Compound 35, (1R,3S,5R)-2-(2-(3-Acetyl-7-methyl-5-(2-methylpyrimidin-5-yl)-1H-indazol-1-yl)acetyl)-5-methyl-N-(1-(2,2,2-trifluoroethyl)-1H-pyrazol-3-yl)-2-azabicyclo[3.1.0]hexane-3-carboxamide] | < 1 |
| CC(=O)c1nn(CC(=O)N2[C@H](C(=O)Nc3cccc(C(F)(F)F)n3)C[C@@]3(C)C[C@@H]23)c2c(C)cc(-c3cnc(C)nc3)cc12 [Compound 36, (1R,3S,5R)-2-(2-(3-Acetyl-7-methyl-5-(2-methylpyrimidin-5-yl)-1H-indazol-1-yl)acetyl)-5-methyl-N-(6-(trifluoromethyl)pyridin-2-yl)-2-azabicyclo[3.1.0]hexane-3-carboxamide] | < 1 |
| CC(=O)c1nn(CC(=O)N2[C@H](C(=O)Nc3cccc(OC(F)(F)F)n3)C[C@@]3(C)C[C@@H]23)c2c(C)cc(-c3cnc(C)nc3)cc12 [Compound 37, (1R,3S,5R)-2-(2-(3-Acetyl-7-methyl-5-(2-methylpyrimidin-5-yl)-1H-indazol-1-yl)acetyl)-5-methyl-N-(6-(trifluoromethoxy)pyridin-2-yl)-2-azabicyclo[3.1.0]hexane-3-carboxamide] | < 1 |
